Reference: PubChem BioAssay AID379

Biological target: Adenylate kinase isoenzyme 1 (Homo sapiens) (UniProt P00568)
Experiment: ligand-induced stabilization of human AK1 – biophysical, DSF, SYPRO orange (AID 379)
Conditions: purified AK1, DSF SYPRO orange thermal shift; at 5 µM; protein 1 µM; buffer 10 mM HEPES; active compounds read high

Adenylate kinase isoenzyme 1 (Homo sapiens), sequence (P00568 whole entry, looked up): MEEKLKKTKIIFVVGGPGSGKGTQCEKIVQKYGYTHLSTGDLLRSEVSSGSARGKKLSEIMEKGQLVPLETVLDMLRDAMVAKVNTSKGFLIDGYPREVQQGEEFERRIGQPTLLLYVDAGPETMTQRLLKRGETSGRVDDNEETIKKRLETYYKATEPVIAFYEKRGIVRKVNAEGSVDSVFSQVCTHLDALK

Tm shift: 15.4 Celsius
Structure (SMILES): Nc1ncnc2c1ncn2[C@@H]1O[C@H](COP(=O)(O)OP(=O)(O)OP(=O)(O)OP(=O)(O)OP(=O)(O)OC[C@H]2O[C@@H](n3cnc4c(N)ncnc43)[C@H](O)[C@@H]2O)[C@@H](O)[C@H]1O
